Assay results from PMC13101830 (Pharmaceutical research, 2023).
Where a SMILES comes first, the peptide text is derived from it.

System: BBB-mimicking system with the co-culture of bEnd.3 and astrocytes
Assay: In vitro BBB permeability assay in BBB-mimicking co-culture model
Type: in vitro ADME, mouse
Details: 10 μg/ml in top chamber, 30-120 min, 37°C

With `N[C@@H](Cc1cnc[nH]1)C(=O)N[C@@H](Cc1ccc(O)cc1)C(=O)O` [His-Tyr] (H-His-Tyr-OH) the “permeability coefficient (Pe), apical to basolateral (A > B)” value was 0.12 ± 0.02 × 10^−5 cm^2/second.
